Measurements: paper PMC11257449 (bioRxiv, 2024)

Target: AmpC β-lactamase (Escherichia coli, UniProt P00811)
Format: biochemical
Conditions: for Km: AmpC substrate

Chain of AmpC β-lactamase (P00811 20-377): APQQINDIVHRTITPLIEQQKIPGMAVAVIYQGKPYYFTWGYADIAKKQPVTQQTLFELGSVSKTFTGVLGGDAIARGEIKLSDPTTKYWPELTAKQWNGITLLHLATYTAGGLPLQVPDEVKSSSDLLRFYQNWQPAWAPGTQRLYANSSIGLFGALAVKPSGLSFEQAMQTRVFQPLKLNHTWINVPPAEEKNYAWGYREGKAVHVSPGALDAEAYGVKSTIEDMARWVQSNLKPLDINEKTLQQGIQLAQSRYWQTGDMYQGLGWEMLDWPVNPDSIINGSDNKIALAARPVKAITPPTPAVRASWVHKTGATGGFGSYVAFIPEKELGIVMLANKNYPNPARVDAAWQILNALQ

Q: Which Km does the source give for O=C(Cc1cccs1)N[C@@H]1C(=O)N2C(C(=O)O)=C(CSc3ccc([N+](=O)[O-])c(C(=O)O)c3)CS[C@H]12 [CENTA] here?
A: The Km was 27.6 µM.

Q: For O=S(=O)(Nc1ccc(F)c2cnccc12)c1cc(Cl)cc(Cl)c1O [Z6615020275], which Ki (Fig. 1 legend, crystallised inhibitors) is on record?
A: Its Ki is 2 µM.

Q: How did the Km turn out when O=C(Cc1cccs1)N[C@@H]1C(=O)N2C(C(=O)O)=C(/C=C/c3ccc([N+](=O)[O-])cc3[N+](=O)[O-])CS[C@H]12 [nitrocefin] was run?
A: Its Km is 180 µM.
